Like-named read-outs stand apart in the source and are kept apart here.
Tests used:
PARP1 = PARP1 (Homo sapiens, UniProt P09874); assay: PARP1 inhibition assay; type: biochemical; conditions: tested in duplicate, average; for inhibition at 1 µM: read-out: Inhibition rate PARP1, 1 μmol/L; for inhibition at 10 µM: read-out: Inhibition rate PARP1, 10 μmol/L
[1] = target: recombinant BRD4(BD1 + BD2) (Homo sapiens, UniProt O60885); assay: BRD4 inhibition assay; type: binding; conditions: tested in duplicate, average; for inhibition at 1 µM: read-out: Inhibition rate BRD4, 1 μmol/L; for inhibition at 10 µM: read-out: Inhibition rate BRD4, 10 μmol/L
MDA-MB-468 cells = assay: Cell viability assay; type: cell-based, human; conditions: read-out: Anti-proliferative activity (IC50)
[2] = MDA-MB-468 cells, cell viability assay for 24 h

PARP1, sequence (P09874 whole entry): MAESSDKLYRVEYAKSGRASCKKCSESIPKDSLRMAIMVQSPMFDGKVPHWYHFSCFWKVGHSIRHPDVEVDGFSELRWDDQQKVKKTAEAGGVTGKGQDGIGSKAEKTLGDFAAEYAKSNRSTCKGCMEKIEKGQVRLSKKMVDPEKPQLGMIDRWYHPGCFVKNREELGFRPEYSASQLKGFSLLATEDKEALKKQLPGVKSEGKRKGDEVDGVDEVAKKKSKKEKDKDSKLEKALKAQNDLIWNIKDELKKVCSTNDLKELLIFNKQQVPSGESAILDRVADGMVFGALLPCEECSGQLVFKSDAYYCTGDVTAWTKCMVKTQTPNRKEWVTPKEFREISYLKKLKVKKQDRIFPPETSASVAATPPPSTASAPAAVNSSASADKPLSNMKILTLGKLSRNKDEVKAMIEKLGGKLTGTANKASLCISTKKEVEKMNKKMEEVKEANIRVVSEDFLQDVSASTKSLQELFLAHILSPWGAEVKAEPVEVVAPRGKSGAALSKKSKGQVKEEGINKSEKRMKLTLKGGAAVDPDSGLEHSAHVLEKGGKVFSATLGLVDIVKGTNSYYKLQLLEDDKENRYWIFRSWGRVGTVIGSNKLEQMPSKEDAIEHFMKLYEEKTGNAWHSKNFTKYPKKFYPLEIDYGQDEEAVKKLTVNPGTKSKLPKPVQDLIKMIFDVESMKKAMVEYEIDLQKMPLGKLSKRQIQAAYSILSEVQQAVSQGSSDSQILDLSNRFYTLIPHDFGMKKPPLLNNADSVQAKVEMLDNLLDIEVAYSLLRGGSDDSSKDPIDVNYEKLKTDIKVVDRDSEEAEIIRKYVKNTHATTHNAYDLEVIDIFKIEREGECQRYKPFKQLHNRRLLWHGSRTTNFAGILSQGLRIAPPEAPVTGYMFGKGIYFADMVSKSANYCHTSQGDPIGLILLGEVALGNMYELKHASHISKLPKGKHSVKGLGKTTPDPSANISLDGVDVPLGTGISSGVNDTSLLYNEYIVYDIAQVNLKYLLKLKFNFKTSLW

Inhibition rate PARP1 (PARP1; 1 μmol/L) [%]	Inhibition rate PARP1 (PARP1; 10 μmol/L) [%]	Inhibition rate BRD4 ([1]; 1 μmol/L) [%]	Inhibition rate BRD4 ([1]; 10 μmol/L) [%]	IC50 (MDA-MB-468 cells; [2]) [µM]	inhibition at 1 µM (PARP1) [%]	inhibition at 10 µM (PARP1) [%]	inhibition at 1 µM [1] [%]	inhibition at 10 µM [1] [%]	IC50 (MDA-MB-468 cells; Homo sapiens, MDA-MB-468, 24 h) [µM]	Compound
3	2	11	80	24.2 ± 2.2						2-(2-(2-((3a,7a-Dihydro-1H-benzo[d][1,2,3]triazol-1-yl)oxy)ethoxy)-4-methoxyphenyl)-5,7-dimethoxyquinazolin-4(3H)-one [Compound 19q]
4	6	17	77	> 30						2-(4-Chloro-2-(2-((3a,7a-dihydro-1H-benzo[d][1,2,3]triazol-1-yl)oxy)ethoxy)phenyl)-5,7-dimethoxyquinazolin-4(3H)-one [Compound 19r]
					16	70	12	43		O=C(c1cccc(-c2nc3ccccc3c(=O)[nH]2)c1)N1CCN(C(=O)C2CC2)CC1 [Compound 11b, 2-(3-(4-(Cyclopropanecarbonyl)piperazine-1-carbonyl)phenyl)quinazolin-4(3H)-one]
					4	46	8	30		COc1cccc2nc(-c3cccc(C(=O)N4CCN(C(=O)C5CC5)CC4)c3)[nH]c(=O)c12 [Compound 11e, 2-(3-(4-(Cyclopropanecarbonyl)piperazine-1-carbonyl)phenyl)-5-methoxyquinazolin-4(3H)-one]
					14	72	7	68		COc1cc(OC)c2c(=O)[nH]c(-c3ccc(C(=O)N4CCN(C(=O)C5CC5)CC4)cc3F)nc2c1 [Compound 15a, 2-(4-(4-(Cyclopropanecarbonyl)piperazine-1-carbonyl)-2-fluorophenyl)-5,7-dimethoxyquinazolin-4(3H)-one]
					6	≤ 87	4	53		O=C(c1ccc(-c2nc3ccccc3c(=O)[nH]2)c(F)c1)N1CCN(C(=O)C2CC2)CC1 [Compound 15b, 2-(4-(4-(Cyclopropanecarbonyl)piperazine-1-carbonyl)-2-fluorophenyl)quinazolin-4(3H)-one]
					11	55	5	30		COc1cc(OC)c2c(=O)[nH]c(-c3ccc(C(=O)N4CCn5c(nnc5C(F)(F)F)C4)cc3F)nc2c1 [Compound 15c, 2-(2-Fluoro-4-(3-(trifluoromethyl)-5,6,7,8-tetrahydro-[1,2,4]triazolo[4,3-a]pyrazine-7-carbonyl)phenyl)-5,7-dimethoxyquinazolin-4(3H)-one]
						60	3	18		O=C(c1ccc(-c2nc3ccccc3c(=O)[nH]2)c(F)c1)N1CCn2c(nnc2C(F)(F)F)C1 [Compound 15d, 2-(2-Fluoro-4-(3-(trifluoromethyl)-5,6,7,8-tetrahydro-[1,2,4]triazolo[4,3-a]pyrazine-7-carbonyl)phenyl)quinazolin-4(3H)-one]
					7		9			COc1cccc2nc(-c3ccc(C(=O)N4CCN(C(=O)C5CC5)CC4)cc3F)[nH]c(=O)c12 [Compound 15e, 2-(4-(4-(Cyclopropanecarbonyl)piperazine-1-carbonyl)-2-fluorophenyl)-5-methoxyquinazolin-4(3H)-one]
					19	51	29	60		COc1cc(OC)c2c(=O)[nH]c(-c3ccc(OCOc4ccccc4C(N)=O)cc3)nc2c1 [Compound 19v, 2-((4-(5,7-Dimethoxy-4-oxo-3,4-dihydroquinazolin-2-yl)phenoxy)methoxy)benzamide]
									1.1 ± 1.4	O=C(c1cc(Cc2n[nH]c(=O)c3ccccc23)ccc1F)N1CCN(C(=O)C2CC2)CC1 [Olaparib, reference compound]

From paper PMC7838034 (Acta Pharmaceutica Sinica. B, 2020)
